Data published in patent US20230041996A1, “CALCIUM-SENSING RECEPTOR AGONIST COMPOUND AND APPLICATION THEREOF” (BEIJING TUO JIE BIOPHARMACEUTICAL CO. LTD., priority 2019, published 2023).
Where two headings read alike, the source gives them in different places. Square brackets hold non-standard residues; d marks the D form. Peptide text beside a SMILES is read from it. * marks the point of attachment. Cys(free,S-linked) = N[C@@H](CS*)C(=O)O; d2Thi = N[C@H](Cc1cccs1)C(=O)O; dAbu = CC[C@@H](N)C(=O)O

Experiments:
[1] = target: T1, human calcium-sensing receptor (CaSR) (Homo sapiens, UniProt P41180); experiment: Agonist activity on human calcium-sensing receptor (IP-One HTRF in stably transfected HEK293/CaSR cells); assay type: cell-based
T1 construct: host or cells: HEK293
T1 sequence (P41180 20-1078): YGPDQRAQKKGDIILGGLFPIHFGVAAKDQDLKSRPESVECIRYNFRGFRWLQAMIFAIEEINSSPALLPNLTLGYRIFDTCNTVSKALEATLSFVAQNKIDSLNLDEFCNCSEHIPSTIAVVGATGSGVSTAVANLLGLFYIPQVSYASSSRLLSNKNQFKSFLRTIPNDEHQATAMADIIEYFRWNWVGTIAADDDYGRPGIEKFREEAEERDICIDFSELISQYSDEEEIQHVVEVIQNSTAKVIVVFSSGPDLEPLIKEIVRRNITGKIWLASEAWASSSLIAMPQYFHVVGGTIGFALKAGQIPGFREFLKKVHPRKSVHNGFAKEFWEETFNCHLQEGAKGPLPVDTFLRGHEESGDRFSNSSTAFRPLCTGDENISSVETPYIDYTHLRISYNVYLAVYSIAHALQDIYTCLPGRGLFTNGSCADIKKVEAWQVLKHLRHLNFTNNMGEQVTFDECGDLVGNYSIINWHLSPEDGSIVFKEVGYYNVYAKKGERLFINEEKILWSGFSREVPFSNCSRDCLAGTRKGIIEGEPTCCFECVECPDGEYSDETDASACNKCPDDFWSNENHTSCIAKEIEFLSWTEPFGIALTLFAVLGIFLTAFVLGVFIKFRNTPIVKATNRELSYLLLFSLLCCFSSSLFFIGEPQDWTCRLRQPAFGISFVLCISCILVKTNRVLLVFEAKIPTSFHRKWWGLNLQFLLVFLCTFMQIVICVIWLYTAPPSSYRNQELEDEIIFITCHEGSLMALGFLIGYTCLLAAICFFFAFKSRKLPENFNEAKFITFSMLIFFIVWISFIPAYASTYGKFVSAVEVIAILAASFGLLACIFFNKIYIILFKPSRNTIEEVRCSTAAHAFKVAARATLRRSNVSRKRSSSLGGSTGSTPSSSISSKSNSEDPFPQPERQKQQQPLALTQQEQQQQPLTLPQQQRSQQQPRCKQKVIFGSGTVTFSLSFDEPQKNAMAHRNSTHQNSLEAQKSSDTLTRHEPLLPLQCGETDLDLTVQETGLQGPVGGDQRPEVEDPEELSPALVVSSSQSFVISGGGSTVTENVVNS
In short: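 HEK293 cells stably expressing CaSR stimulated 60 min at 37 °C with compounds in buffer containing 1.2 mM CaCl2, 0.5 mM MgCl2 and 50 mM LiCl. IP-One accumulation measured by HTRF (665/620 nm ratio); EC50 from four-parameter fit.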

5/6 nephrectomized rats = experiment: In vivo efficacy in 5/6 nephrectomized rat model after continuous administration (plasma parathyroid hormone, serum calcium)
Text: 3.5.1 Objective: to evaluate the efficacy of some of the compounds disclosed herein in reducing plasma parathyroid hormone level and serum calcium level after continuous administration in a 5/6 nephrectomized rat model.
The rats were adapted. After anesthesia, ⅔ of the left kidney was surgically resected, and after 1 week of recovery, the right kidney was resected to establish the 5/6 nephrectomized rat model. After the second resection, the animals were normally fed for 2 weeks, tested for creatinine (CREA) and plasma parathyroid hormone level, and randomized as per the parathyroid hormone level into 4 groups of 10, including normal saline group, compound 17—low dose group, compound 17—high dose group and etelcalcetide group. After randomization, the normal saline group, compound 17—low dose group, compound 17—high dose group and etelcalcetide group were respectively administered with 1 dose of normal saline, 1 mg/kg of compound 17, 2 mg/kg of compound 17 and 1 mg/kg of etelcalcetide through the tail vein daily for 28 days. During the treatment period, parameters such as animal weight, plasma parathyroid hormone level and serum calcium were detected. The first day of treatment was taken as day 1.

[2] = HEK293/CaSR cells, IP-One production, 60 min at 37° C., CaCl2 1.2 mM, read-out: EC50 for calcium-sensing receptor

CC(=O)N[C@H](CSSC[C@H](N)C(=O)O)C(=O)N[C@H](CCCNC(=N)N)C(=O)N[C@H](CCCNC(=N)N)C(=O)N[C@H](Cc1cccs1)C(=O)N[C@H](CCCNC(=N)N)C(=O)N[C@H](C)C(=O)N[C@H](CCCNC(=N)N)C(N)=O [Compound 13, Ac-c(C)-r-r-(D-2-Thi)-r-a-r-NH2] (Ac-[dC](Cys(free,S-linked))[dR][dR][d2Thi][dR][dA][dR]-NH2)
EC50 [1, 2]: 1.21 µM

CC[C@@H](NC(=O)[C@@H](CCCNC(=N)N)NC(=O)[C@@H](CCCNC(=N)N)NC(=O)[C@@H](CSSC[C@H](N)C(=O)O)NC(C)=O)C(=O)N[C@H](CCCNC(=N)N)C(=O)N[C@H](C)C(=O)N[C@H](CCCNC(=N)N)C(N)=O [Compound 17, Ac-c(C)-r-r-(D-Abu)-r-a-r-NH2] (Ac-[dC](Cys(free,S-linked))[dR][dR][dAbu][dR][dA][dR]-NH2)
plasma parathyroid hormone level compared with the normal saline group (5/6 nephrectomized rats; 1 mg/kg and 2 mg/kg daily via tail vein for 28 days): reduced the plasma parathyroid hormone level in rats in a dose dependent manner | suppression of plasma parathyroid hormone level versus etelcalcetide at the same dose (5/6 nephrectomized rats; 1 mg/kg, 6 h and 16 h post-dose, FIG. 4): slightly superior or comparable magnitude to that of etelcalcetide | serum calcium reduction (5/6 nephrectomized rats; after administration on days 1, 14 and 28): reversible serum calcium reduction | persistence to reduce serum calcium levels versus etelcalcetide at the same dose (5/6 nephrectomized rats; day 28): superior and significantly different | maximal reduction in serum calcium versus etelcalcetide at the same dose (5/6 nephrectomized rats; days 1, 14 and 28, FIG. 5): comparable to etelcalcetide | extent of serum calcium reduction with the period of treatment (5/6 nephrectomized rats; minimum of serum calcium on days 14 and 28 compared to day 1): did not increase with the period of treatment | EC50 [1]: 6.28 µM

CC[C@@H](NC(=O)[C@@H](CCCNC(=N)N)NC(=O)[C@@H](CCCNC(=N)N)NC(=O)[C@@H](CSSC[C@H](N)C(=O)O)NC(C)=O)C(=O)N[C@H](CCCNC(=N)N)C(=O)N[C@H](CO)C(=O)N[C@H](CCCNC(=N)N)C(N)=O [Compound 31, Ac-c(C)-r-r-(D-Abu)-r-s-r-NH2] (Ac-[dC](Cys(free,S-linked))[dR][dR][dAbu][dR][dS][dR]-NH2)
EC50 [1, 2]: 5.93 µM
